Structures are written as SMILES. Where only a bound is given, the exact number is not on record here.

The target of assay [1] is T1, recombinant human c-Met/HGF receptor (Homo sapiens, UniProt P08581).
T1 construct: His tag (histidine tag from pBlueBacHis2A); made in house; host or cells: Hi-5 cells (Trichoplusia ni), recombinant baculovirus
As to the kind of experiment: In vitro receptor tyrosine kinase assay (DELFIA), c-Met/HGF receptor. The class given is biochemical. Conditions: Table 30; ATP 10 uM, enzyme 25 nM; read-out: C-Met (enz.) (IC50).

A further assay has as its target T2, VEGF receptor KDR (Homo sapiens, UniProt P35968).
T2 construct: made in house; host or cells: Sf9 cells (Spodoptera frugiperda), recombinant baculovirus
As to the kind of experiment: In vitro receptor tyrosine kinase assay (DELFIA), VEGF receptor KDR. Conditions: Table 30; ATP 0.6 uM, enzyme 5 nM; read-out: VEGF(enz.) (IC50). Type of assay: biochemical.

The target of a further assay is TPR-MET fusion protein (Homo sapiens, UniProt P08581). Kind of assay: C-Met phosphorylation cell-based assay (MNNGHOS cells, immunoblot). Conditions: Table 30, 3 hours treatment, read-out: C-Met cell-based Y1230-34-35 tpr-met inhibition (IC50). The text has this:
C-Met Phosphorylation Cell-Based Assay
A general note: A western blot detects proteins with antibodies after separation by electrophoresis.

The test system of a further assay is U87 cells. Kind of assay: In vivo solid tumor disease model, U87 xenograft. Also noted: species or system female athymic CD 1 mice. Conditions: U87MG. An excerpt:
(§1) In Vivo Solid Tumor Disease Model
(§2) This test measures the capacity of compounds to inhibit solid tumor growth.
(§3) Tumor xenografts were established in the flank of female athymic CD 1 mice (Charles River Inc.), by subcutaneous injection of 1×10^6U87, A431 or SKLMS cells/mouse. Once established, tumors were then serially passaged s.c. in nude mice hosts. Tumor fragments from these host animals were used in subsequent compound evaluation experiments. For compound evaluation experiments female nude mice weighing approximately 20 g were implanted s.c. by surgical implantation with tumor fragments of ˜30 mg from donor tumors. When the tumors were approximately 100 mm^3 in size (˜7-10 days following implantation), the animals were randomized a separated into treatment and control groups. Each group contained 6-8 tumor-bearing mice, each of which was ear-tagged and followed individually throughout the experiment
(§4) Mice were weighed and tumor measurements are taken by calipers three times weekly, starting on Day 1. These tumor measurements were converted to tumor volume by the well-known formula (L+W/4)^34/3π. The experiment was terminated when the control tumors reached a size of approximately 1500 mm^3. In this model, the change in mean tumor volume for a compound treated group/the change in mean tumor volume of the control group (non-treated or vehicle treated)×100 (ΔT/ΔC) was subtracted from 100 to give the percent tumor growth inhibition (% TGI) for each test compound. In addition to tumor volumes, body weight of animals were monitored twice weekly for up to 3 weeks.
(§5) Regiment of administration was once daily.

Another assay relates to HCT116. Kind of assay: In vivo solid tumor disease model, HCT116 xenograft. Also noted: species or system female athymic CD 1 mice. The settings on record: 14 days.
Another assay concerns A431 cells. As to the kind of experiment: In vivo solid tumor disease model, A431 xenograft. Also noted: species or system female athymic CD 1 mice. The settings on record: 30 mg/kg once daily IP, vehicle DMSO, 14 days.
Excerpt: as §1, §2, §3, §4, §5

The subject of another assay is A549. Kind of assay: In vivo solid tumor disease model, A549 xenograft. Also noted: species or system female athymic CD 1 mice.
The next assay relates to DU145. As to the kind of experiment: In vivo solid tumor disease model, DU145 xenograft. The settings on record: 10 days. On the set-up: species or system female athymic CD 1 mice.
A further assay relates to SKLMS cells. As to the kind of experiment: In vivo solid tumor disease model, SKLMS xenograft. On the set-up: species or system female athymic CD 1 mice. Conditions: SKLMS40.
Excerpt: as §1, §2, §3, §4, §5

Where [2] appears, read: 30 mg/kg once daily IP, vehicle DMSO, 14 days.
[3] abbreviates: 15 mg/kg once daily IP, vehicle DMSO.
Setting [4] is: 30 mg/kg once daily IP, vehicle DMSO.
[5] abbreviates: 15 mg/kg once daily IP, vehicle DMSO, 10 days.
The mark [6] stands for this setting: 30 mg/kg once daily IP, vehicle DMSO, 10 days.
Setting [7] is: 75 mg/kg once daily PO, vehicle 5% DMSO - 1% Tween-80 in water, 10 days.
Where [8] appears, read: 75 mg/kg once daily PO, vehicle 5% DMSO - 1% Tween-80 in water, 14 days.

T2 sequence (P35968 806-1356): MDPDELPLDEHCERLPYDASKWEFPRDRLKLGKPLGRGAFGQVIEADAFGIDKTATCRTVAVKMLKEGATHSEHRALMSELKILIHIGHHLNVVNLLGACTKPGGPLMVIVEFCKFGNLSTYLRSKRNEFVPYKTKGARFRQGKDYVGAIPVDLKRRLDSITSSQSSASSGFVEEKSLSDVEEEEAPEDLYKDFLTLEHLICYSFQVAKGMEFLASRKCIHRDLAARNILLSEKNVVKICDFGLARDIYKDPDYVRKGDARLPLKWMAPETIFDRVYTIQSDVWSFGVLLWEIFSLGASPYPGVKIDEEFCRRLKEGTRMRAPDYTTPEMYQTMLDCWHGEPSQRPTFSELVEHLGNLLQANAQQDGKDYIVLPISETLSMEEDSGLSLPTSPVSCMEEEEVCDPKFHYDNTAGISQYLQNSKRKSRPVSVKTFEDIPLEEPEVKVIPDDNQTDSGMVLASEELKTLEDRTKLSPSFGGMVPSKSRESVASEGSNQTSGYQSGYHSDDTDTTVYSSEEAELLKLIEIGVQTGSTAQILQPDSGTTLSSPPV
TPR-MET fusion protein, sequence (P08581 with tags, fused parts or gaps): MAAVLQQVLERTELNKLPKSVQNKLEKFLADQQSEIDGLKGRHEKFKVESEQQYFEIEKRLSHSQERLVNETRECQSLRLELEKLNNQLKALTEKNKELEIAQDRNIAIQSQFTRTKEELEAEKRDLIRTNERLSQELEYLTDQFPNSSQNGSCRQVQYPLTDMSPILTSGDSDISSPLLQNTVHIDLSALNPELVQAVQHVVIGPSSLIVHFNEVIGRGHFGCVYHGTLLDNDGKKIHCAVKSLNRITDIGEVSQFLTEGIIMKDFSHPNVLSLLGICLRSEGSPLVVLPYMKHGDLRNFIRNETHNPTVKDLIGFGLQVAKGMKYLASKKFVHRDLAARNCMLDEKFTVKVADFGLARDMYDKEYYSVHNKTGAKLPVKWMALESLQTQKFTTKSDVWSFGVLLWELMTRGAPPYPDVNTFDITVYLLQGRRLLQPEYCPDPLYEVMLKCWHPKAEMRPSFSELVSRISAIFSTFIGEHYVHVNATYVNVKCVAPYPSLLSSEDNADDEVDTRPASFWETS
T1 sequence (P08581 1078-1337): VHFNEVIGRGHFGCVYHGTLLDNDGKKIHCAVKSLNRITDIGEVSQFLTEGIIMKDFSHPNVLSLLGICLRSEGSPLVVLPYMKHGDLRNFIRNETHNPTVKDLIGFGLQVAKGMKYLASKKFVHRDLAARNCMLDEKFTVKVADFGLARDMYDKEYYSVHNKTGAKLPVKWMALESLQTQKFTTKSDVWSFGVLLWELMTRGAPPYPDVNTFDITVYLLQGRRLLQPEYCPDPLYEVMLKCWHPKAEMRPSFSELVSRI

For orientation: IC50 means the midpoint of a concentration-inhibition curve. With `O=C(Cc1ccccc1)NC(=S)Nc1ccc(Oc2ccnc3cc(-c4nccs4)sc23)c(F)c1` [Example 12, 1-(4-(2-(Thiazol-2-yl)thieno[3,2-b]pyridin-7-yloxy)-3-fluorophenyl)-3-(2-phenylacetyl)thiourea], the figures for the IC50 (in assay [1]; at VEGF receptor KDR; at TPR-MET fusion protein) were 50 to 250 nM, less than 50 nM and less than 50 nM, respectively. For the same compound, the “Tumor Growth Inhibition (%)” value is reported as “b (% TGI in the range of 50-74)” in the assay on U87 cells (setting [2]) and “c (% TGI in the range of 25-49)” with HCT116 (HST116, 30 mg/kg once daily IP, vehicle DMSO).
Regarding `O=C(Cc1ccccc1)NC(=S)Nc1ccc(Oc2ccnc3cc(C(=O)N4CCCC4)sc23)c(F)c1` [Example 37, 1-{3-Fluoro-4-[2-(pyrrolidine-1-carbonyl)-thieno[3,2-b]pyridin-7-yloxy]-phenyl}-3-phenylacetyl-thiourea], the half-inhibitory concentration (IC50) in assay [1] is 50 to 250 nM; on VEGF receptor KDR it was less than 50 nM; on TPR-MET fusion protein it was less than 50 nM. Moreover, the “Tumor Growth Inhibition (%)” value was “b (% TGI in the range of 50-74)” in the assay on U87 cells (15 mg/kg once daily IV, vehicle 50/50 DMSO:40/60 PEG/0.2 N HCl in saline, 10 days); “c (% TGI in the range of 25-49)” in the assay with U87 cells (30 mg/kg once daily IV, vehicle 50/50 DMSO:40/60 PEG/0.2 N HCl in saline, 10 days); “b (% TGI in the range of 50-74)” in the assay with A431 cells; “c (% TGI in the range of 25-49)” in the assay with A549 (setting [2]); “d (% TGI in the range of 0-24)” in the assay with DU145 (setting [3]); “d (% TGI in the range of 0-24)” in the assay with DU145 (setting [4]).
With `O=C(Cc1ccccc1)NC(=S)Nc1ccc(Oc2ccnc3cc(C(=O)N4CC[C@@H](O)C4)sc23)c(F)c1` [Example 38, (R)-N-(3-Fluoro-4-(2-(3-hydroxypyrrolidine-1-carbonyl)thieno[3,2-b]pyridin-7-yloxy)phenylcarbamothioyl)-2-phenylacetamide], the “Tumor Growth Inhibition (%)” value with A431 cells and with A549 (setting [2]) was “c (% TGI in the range of 25-49)” each time.
Consider `Cn1cnnc1-c1cc2nccc(Oc3ccc(NC(=S)NC(=O)Cc4ccccc4)cc3F)c2s1` [Example 75, N-(3-Fluoro-4-(2-(4-methyl-4H-1,2,4-triazol-3-yl)thieno[3,2-b]pyridin-7-yloxy)phenylcarbamothioyl)-2-phenylacetamide], for which the half-maximal inhibitory concentration (IC50) on VEGF receptor KDR was less than 50 nM. For the same compound, the “Tumor Growth Inhibition (%)” value with U87 cells (setting [5]) is recorded as “d (% TGI in the range of 0-24)”; in the assay on U87 cells (setting [6]) it was “c (% TGI in the range of 25-49)”; with U87 cells (setting [2]) it was “c (% TGI in the range of 25-49)”; with U87 cells (100 mg/kg once daily PO, vehicle 5% DMSO - 1% Tween-80 in water, 14 days), “b (% TGI in the range of 50-74)”; in the assay with SKLMS cells (setting [5]), “b (% TGI in the range of 50-74)”; with A549 (75 mg/kg once daily PO, vehicle 5% DMSO - 1% Tween-80 in water, 12 days), “b (% TGI in the range of 50-74)”. The “Tumor Growth Inhibition (%)” value in the assay with DU145 (setting [3]) was “c (% TGI in the range of 25-49)”.
In the case of `Cn1cnc(-c2cc3nccc(Oc4ccc(NC(=S)NC(=O)Cc5ccccc5)cc4F)c3s2)c1` [Example 76, N-(3-Fluoro-4-(2-(1-methyl-1H-imidazol-4-yl)thieno[3,2-b]pyridin-7-yloxy)phenylcarbamothioyl)-2-phenylacetamide], the “Tumor Growth Inhibition (%)” value in the assay with A549 (setting [2]) was “b (% TGI in the range of 50-74)”; in the assay with A549 (setting [7]), “b (% TGI in the range of 50-74)”; in the assay with A549 (setting [8]), “c (% TGI in the range of 25-49)”; in the assay with DU145 (75 mg/kg once daily PO, vehicle 5% DMSO - 1% Tween-80 in water) it was “c (% TGI in the range of 25-49)”.
For `CCn1cnc(-c2cc3nccc(Oc4ccc(NC(=S)NC(=O)Cc5ccccc5)cc4F)c3s2)c1` [Example 77, N-(4-(2-(1-Ethyl-1H-imidazol-4-yl)thieno[3,2-b]pyridin-7-yloxy)-3-fluorophenylcarbamothioyl)-2-phenylacetamide], the “Tumor Growth Inhibition (%)” value in the assay with U87 cells (setting [8]) is on record as “b (% TGI in the range of 50-74)”; with SKLMS cells (75 mg/kg once daily PO, vehicle 5% DMSO - 1% Tween-80 in water, 6 days) it was “d (% TGI in the range of 0-24)”; in the assay with A549 (setting [6]), “b (% TGI in the range of 50-74)”; with A549 (setting [7]), “b (% TGI in the range of 50-74)”.
As for `CC(C)(C)OC(=O)NC1CCN(C(=O)c2cc3ncnc(Oc4ccc(NC(=S)NC(=O)Cc5ccccc5)cc4F)c3s2)C1` (stereo not shown) [Example 148, tert-Butyl 1-(4-(2-fluoro-4-(3-(2-phenylacetyl)thioureido)phenoxy)thieno[3,2-d]pyrimidine-6-carbonyl)pyrrolidin-3-ylcarbamate], the “Tumor Growth Inhibition (%)” value in the assay with U87 cells (30 mg/kg once daily IP, vehicle 50/50 DMSO:40/60 PEG/0.2 N HCl in saline, 10 days) is given as “c (% TGI in the range of 25-49)”; in the assay with DU145 (setting [4]), “c (% TGI in the range of 25-49)”.
`Cl.O=C(Cc1c(F)cccc1F)NC(=S)Nc1ccc(Oc2ccnc3cc(C(=O)N4CCCC4)sc23)c(F)c1` [Example 157, 2-(2,6-Difluorophenyl)-N-(3-fluoro-4-(2-(pyrrolidine-1-carbonyl)thieno[3,2-b]pyridin-7-yloxy)phenylcarbamothioyl)acetamide hydrochloride]: the “Tumor Growth Inhibition (%)” value in the assay on A431 cells and in the assay on A549 (setting [2]) was “c (% TGI in the range of 25-49)” throughout.
For `CCn1cnc(-c2cc3nccc(Oc4ccc(NC(=S)NC(=O)Cc5ccccc5F)cc4F)c3s2)c1` [Example 242, 1-{4-[2-(1-Ethyl-1H-imidazol-4-yl)-thieno[3,2-b]pyridin-7-yloxy]-3-fluoro-phenyl}-3-[2-(2-fluoro-phenyl)-acetyl]-thiourea], the “Tumor Growth Inhibition (%)” value with U87 cells (setting [8]) is recorded as “a (% TGI in the range of 75-100)”; with HCT116 (HCT116, 75 mg/kg once daily PO, vehicle 5% DMSO - 1% Tween-80 in water), “b (% TGI in the range of 50-74)”.
With `CCn1cnc(-c2cc3nccc(Oc4ccc(NC(=S)NC(=O)Cc5ccccc5OC)cc4F)c3s2)c1` [Example 243, 1-{4-[2-(1-Ethyl-1H-imidazol-4-yl)-thieno[3,2-b]pyridin-7-yloxy]-3-fluoro-phenyl}-3-[2-(2-methoxy-phenyl)-acetyl]-thiourea], the “Tumor Growth Inhibition (%)” value in the assay with U87 cells (setting [8]) is “b (% TGI in the range of 50-74)”; in the assay with SKLMS cells (75 mg/kg once daily PO, vehicle 5% DMSO - 1% Tween-80 in water, 11 days) it was “b (% TGI in the range of 50-74)”.

The record behind these values is US20100249145A1, “Inhibitors of VEGF Receptor and HGF Receptor Signaling” (Methylgene, Inc., priority 2005, published 2010).
